Measured values from BindingDB's records for doi:10.1111/j.1747-0285.2012.01328.x (Technical University of LÓDz, 2012).

Molecular target: HIV-1 protease (Human immunodeficiency virus, UniProt O90785)
Assay: Fluorometric Assay
Source text: The Ki value were determine by a fluorometric assay with the fluorogenic and chromogenic substrate.

Sequence of HIV-1 protease (O90785 whole entry): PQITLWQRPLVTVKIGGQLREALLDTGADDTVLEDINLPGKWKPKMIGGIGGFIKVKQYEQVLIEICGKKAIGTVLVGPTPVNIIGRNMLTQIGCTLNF

IC50 | Ki | Structure (SMILES)
1 nM | 4.6 nM | Cc1c(O)cccc1C(=O)N[C@@H](Cc1ccccc1)[C@@H](O)C[C@H](Cc1ccccc1)NC(=O)c1ccccc1 [3-Hexanol derivative, 1]
3 nM | 4.8 nM | Cc1ccccc1C(=O)N[C@@H](Cc1ccccc1)C[C@H](O)[C@H](Cc1ccccc1)NC(=O)c1ccccc1C [3-Hexanol derivative, 2]
0.63 nM | 0.32 nM | Cc1c(O)cccc1C(=O)N[C@@H](Cc1ccccc1)[C@@H](O)C[C@H](Cc1ccccc1)NC(=O)OC1CCOC1 (stereo partly drawn) [3-Hexanol derivative, 3]
0.17 nM | 0.021 nM | CC(C)[C@@H](C(=O)N[C@@H](Cc1ccccc1)[C@@H](O)C[C@H](Cc1ccccc1)NC(=O)OC(C)(C)C)N(C)C(=O)OCc1ccccn1 [3-Hexanol derivative, 4]
